ChEMBL document CHEMBL1150516, “Synthesis and biological activity of C-6 modified derivatives of the glucosidase inhibitor 1-deoxynojirimycin” (Bioorg Med Chem Lett, 1992)
The source made the active and inactive calls. The calls are words filed in the database; no cut-off is given here.

Columns and labels:
[1] = Competitive Inhibition constant on jack bean mannosidase; NI=No inhibition; conditions: Canavalia ensiformis
[2] = Competitive Inhibition constant on almonds beta Glucosidase; NI=No inhibition; conditions: Prunus dulcis
[3] = pKa value was determined; type: physicochemical
[4] = Percentase inhibition on glucosidase I of glycoprotein trimming from pig liver at 1 mM concentration; type: functional; conditions: Sus scrofa
Sus scrofa = species on record: Sus scrofa; assay: Percentase inhibition on glucosidase I of glycoprotein trimming from pig liver at 2.5 mM concentration; NI=No inhibition; type: functional, tissue-based

Structure (SMILES)	Activity [1]	Activity [2]	pKa [3]	inhibition at 1000 µM [4]	inhibition (Sus scrofa)
OC[C@H]1NC[C@@H](F)[C@@H](O)[C@@H]1O	inactive	inactive			
OC[C@H]1NC[C@H](O)[C@@H](O)[C@@H]1O [DUVOGLUSTAT]			~6.5		
CCC(O)[C@H]1NC[C@H](O)[C@@H](O)[C@@H]1O (some centres undefined)			~6.5	50%	inactive
CCO[C@@H]1CN[C@H](CO)[C@@H](O)[C@@H]1O	inactive	inactive			
OC1CCN2C[C@H](O)[C@@H](O)[C@H](O)C12 (some centres undefined)			~6.5		
